Laboratory results reported in PMC10447463, “Data-mining unveils structure–property–activity correlation of viral infectivity enhancing self-assembling peptides” (Nature Communications, 2023).
Where “and” joins values, the source holds several entries; their conditions need not be identical. Equal values may be shown once. Read-outs that look alike come from different tables or passages of the source.

Experiments:
[1] = β-sheet content by ATR-FT-IR; type: physicochemical
Summary of the method: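 Conversion rate: fluorescamine fluorescence (ex 365/em 470 nm, 20 min RT) of 3 kDa filtrate versus unfiltered PNF, CR = 100 − 100 × filtrate/original intensity, triplicates. β-sheet content came from ATR FT-IR of lyophilized 1 mg/mL PNF powder, 64 scans.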

[2] = system: HIV-1 infection of TZM-bl cells; assay: HIV-1 infectivity enhancement assay, β-galactosidase luminescence; type: cell-based; conditions: for Log10 Inf. rel. to EF-C: log10 of HIV-1 infection of TZM-bl cells relative to EF-C, Fig S15 source data, asymmetric std dev errors; for Rel-to EFC / n-fold to virus: Fig S8 panels B, D
[3] = type: physicochemical
Summary of the method: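 Fibrils (1 mg/mL solution) were mixed with 50 µM ThT in PBS for 15 min at RT, and fluorescence was read at λex 440/λem 488 nm against a PBS blank, as a triplicate mean ± SD. Zeta potential came from electrophoretic mobility (Smoluchowski) after 1 d aggregation at 1 mg/mL in PBS pH 7.4, diluted into 1 mM KCl.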

[4] = type: physicochemical; conditions: STD prep
[5] = Feb2021, 1.3 µM value relative to virus only (0 µM)
[6] = Feb2021, Log10 of infectivity relative to EF-C
[7] = Feb2021, n-fold enhancement relative to EF-C
[8] = Feb2021, n-fold infectivity relative to EF-C
[9] = Feb2021, unrounded values of the 1.3 µM column
[10] = Feb2021 run, infectivity n-fold relative to virus alone
[11] = Feb2021 run, log10 of infectivity relative to EF-C
[12] = Feb2021 run, n-fold infectivity relative to EF-C
[13] = infectivity class (low / medium / high) of each library peptide, main list in c1-c6, same classes repeated in sub-lists of sequences containing the hydrophobicity/charge patterns P+,H0,P+,H0,P0,H0,P0, P+,H0,P0,H0,P0,H0,P0, P+,H0,P0,H0
[14] = infectivity class (low / medium / high) of the peptide in the sequence-pattern analysis, Fig. S22-A4, class limits not given
[15] = ThT fluorescence relative to blank (42.1851851851852 a.u.)
[16] = relative to blank 42.1851851851852 a.u.
[17] = infectivity enhancement relative to EF-C
[18] = infectivity n-fold relative to virus alone
[19] = Feb2021, figures match the 1.3 µM column
[20] = Feb2021, infectivity relative to virus only
[21] = ThT fluorescence relative to blank, blank = 42.1851851851852

| Substance | FTIR ß-sheet content/ % [1] [%] | FTIR ß-sheet content/ % ([1]; ATR-FT-IR) | n-fold to virus (Feb2021) [2, 5] | Log10 of Rel to EFC (Feb2021) [2, 6] | Rel-to EFC (Feb-2021) [2, 7] | Rel-to EFC (Feb-2021) [2, 8] | Absolute Infectivity / RLU /s (Feb2021) [2, 9] [RLU /s] | n-fold to virus (Feb2021) [2, 10] | Log10 of Rel to EFC (Feb2021) [2, 11] | Rel-to EFC (Feb-2021) [2, 12] | infectivity [2, 13] | infectivity [2, 14] | Log10 Inf. rel. to EF-C [2] | Tht rel to blank (42.1851851851852) [3, 15] | Tht category (> 1.5 to blank = +) ([3]; category 1/0) | Tht rel to blank (42.1851851851852) [3, 16] | TEM: 1= fibrils, 0= aggregates (micelle), 0.5 = aggregates and fibrils, -1 = nothing obersved, STD prep [4] | Rel-to EFC [2, 17] | n-fold to virus [2, 18] | Absolute Infectivity / RLU /s (Feb2021) [2, 19] [RLU /s] | further results |
| --- | --- | --- | --- | --- | --- | --- | --- | --- | --- | --- | --- | --- | --- | --- | --- | --- | --- | --- | --- | --- | --- |
| CKFKFQFNMWQ [BL2] | 47.05 | 47% and 47.05% | 48.74 | 0.06446 | 1.16 | 1.16 | 26320 | 48.74 | 0.06446 | 1.16 | high | high | 0.06446 | 2.427 | 1 (ThT. Cat is 1, if Rel. ThT >2) | 2.427 | 1 |  |  |  |  |
| KAKAQA [JJA2 / TM153] | 40.34 | 40% and 40.34% | 0.7586 | -1.743 | 0.01805 | 0.01805 | 146.7 | 0.7586 | -1.743 | 0.01805 | low |  | -1.743 | 1.172 | 0 (ThT-inactive (N-Fold <2)) | 1.172 | 0 |  |  |  |  |
| CKFKFQF [BL4] | 47.43 | 47% and 47.43% | 51.79 | 0.09083 | 1.233 | 1.233 | 20066.66667 | 51.79 | 0.09083 | 1.233 |  | high | 0.09083 | 2.251 | 1 (ThT. Cat is 1, if Rel. ThT >2) | 2.251 | 1 | 1.233 | 51.79 |  |  |
| KIKIQIC [TM112 / CN11] |  | 53% and 52.93% |  | -0.2164 | 0.6076 | 0.6076 |  |  |  |  | medium |  | -0.2164 | 4.12 | 1 (ThT. Cat is 1, if Rel. ThT >2) |  | 1 | 0.6076 | 25.53 | 9447 | Rel-to EFC (Feb-2021) ([2]; Feb2021, infectivity enhancement relative to EF-C): 0.6076; n-fold to virus (Feb2021) [2, 20]: 25.53; Log10 of Rel to EFC (Feb2021) ([2]; Feb2021, log10 of infectivity relative to EF-C): -0.2164; Tht category (> 1.5 to blank = +) ([3]; FigS26): 1 (Tht category (> 1.5 to blank = +)); Tht rel to blank (42.1851851851852) [3, 21]: 4.12 |
| CKIKQIINMWQ [MG5a / CK17] | 51 | 51% |  | 0.09484 | 1.244 | 1.244 |  | 52.27 | 0.09484 | 1.244 |  | high | 0.09484 | 48.46 | 1 (ThT. Cat is 1, if Rel. ThT >2) | 48.46 | 1 | 1.244 | 52.27 | 23696.66667 | n-fold to virus (Feb2021) [2, 20]: 52.27; Rel-to EFC (Feb-2021) ([2]; infectivity enhancement relative to EF-C (=1), Feb2021 run): 1.244; n-fold to virus (Feb2021) ([2]; infectivity n-fold relative to virus only, Feb2021 run): 52.27; Log10 of Rel to EFC (Feb2021) ([2]; log10 of infectivity relative to EF-C, Feb2021 run): 0.09484; Tht rel to blank (42.1851851851852) [3, 21]: 48.46 |
